Structures are written as SMILES. Calls of active or inactive are those of the source. The rule behind the calls is not given here. A value given as a limit tells only on which side of the number the result lay.

A short description of data set [1]: Electro-oxidation activity at glassy carbon electrode in pH 5 acetate buffer at 50 uM by square-wave voltammetry.
Data set [2] is described as follows: Antiradical activity assessed as gallic acid equivalents of Foline-Ciocalteu reagent reducing capacity at 1 mM preincubated for 5 mins followed by Na2CO3 addition measured after 90 mins.
Data set [3] in a line: Antioxidant activity assessed as DPPH radical scavenging activity after 30 mins by spectrophotometric method. Format: functional. (In general: The DPPH test is a chemical assay of radical scavenging.)
Data set [4] can be described thus: Antioxidant activity assessed as trolox equivalent of ABTS radical scavenging activity at 100 uM measured at >= 5 mins. The class given is functional.
For data set [5], the system named is Liver. Briefly: Antioxidant activity against tert-butyl hydroperoxide-induced lipoperoxidation in rat liver microsomal membranes preincubated for 10 mins followed by tert-butyl hydroperoxide addition measured after 60 mins by TBARS assay. Format: functional, cell membranes, Microsomal Membrane. (Microsomes from liver hold many membrane-bound enzymes, among them those of drug oxidation.)

The test system of data set [6] is Liver. In words: Antioxidant activity against tert-butyl hydroperoxide-induced lipoperoxidation in rat liver microsomal membranes at 1 mM preincubated for 10 mins followed by tert-butyl hydroperoxide addition measured after 60 mins by TBARS assay relative to control. Format: functional, cell membranes. As to conditions: Microsomal Membrane.
Data set [7] relates to Liver. In words: Antioxidant activity against tert-butyl hydroperoxide-induced lipoperoxidation in rat liver microsomal membranes at 50 uM preincubated for 10 mins followed by tert-butyl hydroperoxide addition measured after 60 mins by TBARS assay relative to control. Particulars: Microsomal Membrane. Format: functional, cell membranes.
The nature of data set [8]: Antiradical activity assessed as gallic acid equivalents of Foline-Ciocalteu reagent reducing capacity at 1 mM preincubated for 5 mins followed by Na2CO3 addition measured after 90 mins in presence of silybin.
Data set [9] can be described thus: Antioxidant activity assessed as DPPH radical scavenging activity after 30 mins in presence of silybin by spectrophotometric method. The class given is functional.
Data set [10] is described as follows: Antioxidant activity assessed as trolox equivalent of ABTS radical scavenging activity at 100 uM measured at >= 5 mins in presence of silybin. The class given is functional.
Data set [11] concerns Liver. Briefly: Antioxidant activity against tert-butyl hydroperoxide-induced lipoperoxidation in rat liver microsomal membranes preincubated for 10 mins followed by tert-butyl hydroperoxide addition measured after 60 mins in presence of silybin by TBARS assay. The class given is functional, cell membranes, Microsomal Membrane.
Data set [12] deals with HepG2. Briefly: Cytoprotective activity against tert-butyl hydroperoxide-induced toxicity in human HepG2 cells assessed as cell viability at 5 uM pretreated for 1 hr followed by co-treatment with tert-butyl hydroperoxide for 3 hrs by MTT assay (reference value: 22%). The class given is functional. In general terms: Tetrazolium assays rely on reduction of a dye to a coloured formazan, in cell work by metabolically active cells.

Data set [13] relates to HepG2. Briefly: Cytoprotective activity against tert-butyl hydroperoxide-induced decrease in cell viability in human HepG2 cells at 5 uM pretreated for 1 hr followed by co-treatment with tert-butyl hydroperoxide for 3 hrs in presence of silybin by MTT assay. The class given is functional, cell-based.
Data set [14] has as its system HepG2. Briefly: Cytoprotective activity against tert-butyl hydroperoxide-induced toxicity in human HepG2 cells assessed as cell viability at 5 uM pretreated for 1 hr followed by tert-butyl hydroperoxide addition for 3 hrs by MTT assay (reference value: 16%). Format: functional.
The test system of data set [15] is HepG2. In words: Cytotoxicity against human HepG2 cells assessed as reduction in cell viability up to 10 uM after 4 hrs by MTT assay. Format: cell-based. As to conditions: hepg2, 4 h.
Data set [16] can be described thus: Electro-oxidation activity at glassy carbon electrode in pH 2 to 12 at 50 uM by square-wave voltammetry.
Data set [17] is described as follows: Aqueous solubility of the compound in buffer solution. Format: physicochemical.
The nature of data set [18]: Antiradical activity assessed as gallic acid equivalents of Foline-Ciocalteu reagent reducing capacity at 1 mM preincubated for 5 mins followed by Na2CO3 addition measured after 90 mins in presence of L-ascorbic acid.
Data set [19] can be described thus: Antioxidant activity assessed as DPPH radical scavenging activity after 30 mins in presence of L-ascorbic acid by spectrophotometric method. Format: functional.
Data set [20] is described as follows: Antioxidant activity assessed as trolox equivalent of ABTS radical scavenging activity at 100 uM measured at >= 5 mins in presence of L-ascorbic acid. The class given is functional.
Data set [21] deals with Liver. Briefly: Antioxidant activity against tert-butyl hydroperoxide-induced lipoperoxidation in rat liver microsomal membranes preincubated for 10 mins followed by tert-butyl hydroperoxide addition measured after 60 mins in presence of L-ascorbic acid by TBARS assay. Format: functional, cell membranes, Microsomal Membrane.
Data set [22] deals with HepG2. Briefly: Cytoprotective activity against tert-butyl hydroperoxide-induced decrease in cell viability in human HepG2 cells at 5 uM pretreated for 1 hr followed by co-treatment with tert-butyl hydroperoxide for 3 hrs in presence of L-ascorbic acid by MTT assay. Format: functional, cell-based.

In the case of `C=COC(=O)CCCCCCCCCCC(=O)OC=C`, the outcome in data set [1] was inactive.
What is called IC50 is the concentration needed to halve the response being measured. Broadly, the inhibition is the drop in the measured response relative to a control, in per cent. On to `COc1cc([C@H]2Oc3cc([C@H]4Oc5cc(O)cc(O)c5C(=O)[C@@H]4O)ccc3O[C@@H]2COC(=O)CCCCCCCCCCC(=O)OCCc2ccc(O)cc2)ccc1O`, for which the outcome in data set [1] was inactive. Besides, the Activity in data set [2] turned out to be 0.17 equiv; in [4] it was 0.33 equiv. In addition, the IC50 in data set [3] is 253 µM; in [5], above 1000 µM. The inhibition in data set [6] turned out to be 17%.
On to `O=C1O[C@H]([C@@H](O)CO)C(O)=C1O` [ASCORBIC ACID], for which the Activity in data set [2] is 0.51 equiv; in [4] it was 0.57 equiv; in data set [8] it was 0.25 equiv; in [10], 0.42 equiv; in [15], “Non-Toxic”. The IC50 is 2.76 µM in [3], above 1000 µM in data set [5], 2.94 µM in data set [9] and 56.5 µM in data set [11]. Besides, the inhibition in data set [6] was determined as 13%; in data set [7], 139%. Besides, the result in [12], in data set [13] and in data set [14] was inactive.
Consider `Cc1c(C)c2c(c(C)c1O)CCC(C)(CO)O2` (stereo not given), for which the IC50 in data set [3] was found to be 3.58 µM.
For the compound `COc1cc([C@H]2Oc3cc([C@H]4Oc5cc(O)cc(O)c5C(=O)[C@@H]4O)ccc3O[C@@H]2COC(=O)CCCCCCCCCCC(=O)OC[C@H](O)[C@H]2OC(=O)C(O)=C2O)ccc1O`, the outcome in data set [1] and in data set [16] was Active. Besides, the Activity in data set [2] is 0.65 equiv; in data set [4], 1.32 equiv; in data set [15] it was “Non-Toxic”. Besides, the IC50 is 20.6 µM in data set [3] and 30.2 µM in [5]. Also, the viability at 5 µM in data set [12] (read-out: Activity) was 43%; in data set [14] (read-out: Activity), 27%.
As for `C=COC(=O)CCCCCCCCCCC(=O)OC[C@H]1Oc2ccc([C@H]3Oc4cc(O)cc(O)c4C(=O)[C@@H]3O)cc2O[C@@H]1c1ccc(O)c(OC)c1`, the outcome in data set [1] was inactive. Besides, the solubility result in data set [17] is reported as “Insoluble”. Further, the Activity in data set [2] came to 0.15 equiv; in data set [4], 0.93 equiv. For the same compound, the values for the IC50 in [3] and in [5] were 372 µM and 111 µM, respectively.
Take `COc1cc(C2Oc3cc([C@H]4Oc5cc(O)cc(O)c5C(=O)[C@@H]4O)ccc3OC2CO)ccc1O` (stereo not given in full) [SILIBININ]: the result in [1], in [12], in data set [22] and in [14] was inactive. Further, the Activity was 0.92 equiv in [2]; 0.78 equiv in data set [4]; 0.25 equiv in [18]; 0.42 equiv in data set [20]; “Non-Toxic” in data set [15]. The IC50 is 244 µM in data set [3], 77.1 µM in data set [5], 2.94 µM in [19] and 56.5 µM in data set [21].
Take `COc1cc([C@H]2Oc3cc([C@H]4Oc5cc(O)cc(O)c5C(=O)[C@@H]4O)ccc3O[C@@H]2COC(=O)CCCCCCCCCCC(=O)OCC2(C)CCc3c(C)c(O)c(C)c(C)c3O2)ccc1O` (stereo not given in full): the result in data set [1] was inactive. For the same compound, the Activity in data set [2] worked out at 0.15 equiv; in [4], 0.24 equiv. Further, the IC50 in data set [3] amounted to 3.5 µM; in [5] it was 72.9 µM.

These data come from ChEMBL document CHEMBL3994614, “Novel flavonolignan hybrid antioxidants: From enzymatic preparation to molecular rationalization” (Eur J Med Chem, 2017).
